Results published in patent US6743796B2, “Piperazinyl-isatins” (Wyeth, priority 2001, dated 2004).
Structures can show the parent of a compound that is named as a salt.

How the values were obtained:
[1] = biological target: T1, dopamine autoreceptor (D2 Quin.) (Rattus norvegicus, UniProt P61169); test: Affinity for the dopamine autoreceptor: [3H]-quinpirole binding in homogenized rat striatal brain tissue; details: rat striatal brain tissue (high-affinity agonist state)
T1 construct: from tissue; host or cells: rat striatal brain tissue homogenate
T1 sequence (P61169 whole entry): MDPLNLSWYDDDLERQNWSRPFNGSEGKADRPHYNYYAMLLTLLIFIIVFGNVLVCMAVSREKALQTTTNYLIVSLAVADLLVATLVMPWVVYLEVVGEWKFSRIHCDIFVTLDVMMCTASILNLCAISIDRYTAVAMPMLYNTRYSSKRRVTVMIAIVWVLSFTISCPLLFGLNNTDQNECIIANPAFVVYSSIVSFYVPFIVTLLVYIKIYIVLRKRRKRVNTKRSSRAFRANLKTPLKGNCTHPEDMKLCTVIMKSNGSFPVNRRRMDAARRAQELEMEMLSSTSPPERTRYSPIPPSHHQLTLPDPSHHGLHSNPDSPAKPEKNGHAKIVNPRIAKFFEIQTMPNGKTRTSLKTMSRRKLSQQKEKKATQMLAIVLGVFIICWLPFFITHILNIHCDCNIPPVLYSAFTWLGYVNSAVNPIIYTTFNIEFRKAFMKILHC
Experimental: Affinity for the dopamine autoreceptor was established by a modification of the standard pharmacological test procedure of Seemen and Schaus, European Journal of Pharmacology 203: 105-109, 1991, wherein homogenized rat striatal brain tissue is incubated with [^3H]-quinpirole (Quin.) at various concentrations of test compound, filtered, washed and counted in a Betaplate scintillation counter.

dopamine D2 receptor = test: Affinity for the dopamine D2 receptor: [3H]-spiperidone binding in homogenized limbic brain tissue; details: ratio of IC50 D2 Spiper to IC50 D2 Quin. (LowAg/HighAg)
Experimental: High affinity for the dopamine D2 receptor was established by the standard pharmacological test procedure of Fields, et al., Brain Res., 136, […] (1977) and Yamamura et al., ed., Neurotransmitter Receptor Binding, Raven Press, N.Y. (1978) wherein homogenized limbic brain tissue is incubated with [^3H]-spiperidone at various concentrations of test compound, filtered washed, and shaken with Hydrofluor scintillation cocktail (National Diagnostics) and counted in a Packard 460 CD scintillation counter.

Structure (SMILES)	melting point [°C]	IC50 [1] [nM]	Ratio antagonist (dopamine D2 receptor)
O=C1Nc2cccc(N3CCN(Cc4ccccc4)CC3)c2C1=O (as salt: fumarate) (hydrate or solvate) [Example V, 4-(4-Benzyl-piperazin-1-yl)-1H-indole-2,3-dione]	118 to 120	–	–
O=C1Nc2cccc(N3CCN(Cc4ccccc4)CC3)c2C1=O [Example V, 4-(4-Benzyl-piperazin-1-yl)-1H-indole-2,3-dione]	–	0.57 ± 0.2	149
